Results published in the supplement of paper PMC10627819.

Experiments:
[1] = tested on: B. subtilis 168; test: fitness (endpoint OD595 vs no drug) (fraction); higher = more growth
Method in brief: (§1)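 Fitness compares growth at the stationary-phase transition with the robust mean of no-drug control wells, as a ratio of optical densities. The ratio is capped at 1. Wells of 384-well plates held 30 µl, or 55 µl for S. pneumoniae, inoculated at OD595 0.01. Readings at OD595 every 30 min for 14 h at 37 °C were corrected against the first reading.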

[2] = tested on: S. aureus DSM 20231; test: as above
Method in brief: as §1

[3] = tested on: S. aureus Newman; test: as above
Method in brief: as §1

[4] = tested on: S. pneumoniae D39V; test: as above
Method in brief: as §1

[5] = tested on: B. subtilis 168; test: Bliss interaction score (quartile over a dose matrix) (fitness difference); higher = more antagonism (negative = synergy)
Method in brief: (§2)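 Quartiles of the Bliss score were taken over technical, biological and donor/recipient replicates. That score is observed fitness minus the product of the single-drug fitness values, which were inferred from combination data. Fitness itself is OD595 at entry into stationary phase divided by the plate's robust no-drug mean, with a cap at 1.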

[6] = tested on: S. aureus DSM 20231; test: as above
Method in brief: as §2

[7] = tested on: S. aureus Newman; test: as above
Method in brief: as §2

[8] = tested on: S. pneumoniae D39V; test: as above
Method in brief: as §2
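Throughout, for Bliss interaction score (quartile over a dose matrix): first quartile when negative (synergy) and third quartile when positive (antagonism).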

CCC[C@@H]1C[C@@H](C(=O)N[C@@H]([C@H]2O[C@H](SC)[C@H](O)[C@@H](O)[C@H]2O)[C@H](C)Cl)N(C)C1 [Clindamycin] + CN1C2=CC=CC=C2N=C3C1=CC=CC3=O [Pyocyanin]
fitness, one replicate
Conditions	first compound 0.0039 µg/mL	first compound 0.0078 µg/mL	first compound 0.015 µg/mL	first compound 0.0156 µg/mL	first compound 0.03 µg/mL	first compound 0.06 µg/mL
[1], partner 1.25 µg/mL	0.892	0.424	–	0.863	–	–
[1], partner 2.5 µg/mL	0.922	0.451	–	0.802	–	–
[1], partner 5 µg/mL	0.821	0.495	–	0.725	–	–
[4], partner 0.325 µg/mL	–	–	0.89	–	0.873	0.554
[4], partner 0.65 µg/mL	–	–	0.963	–	0.881	0.689

Conditions	fitness
[1], first compound 0.0625 µg/mL, partner 1.25 µg/mL	0.562
[1], first compound 0.0625 µg/mL, partner 2.5 µg/mL	0.576
[1], first compound 0.0625 µg/mL, partner 5 µg/mL	0.517
[1], first compound 0.125 µg/mL, partner 1.25 µg/mL	0.388
[1], first compound 0.125 µg/mL, partner 2.5 µg/mL	0.389
[1], first compound 0.125 µg/mL, partner 5 µg/mL	0.358
[1], first compound 0.25 µg/mL, partner 1.25 µg/mL	0.34
[1], first compound 0.25 µg/mL, partner 2.5 µg/mL	0.319
[1], first compound 0.25 µg/mL, partner 5 µg/mL	0.314
[2], first compound 0.0625 µg/mL, partner 5 µg/mL	0.0689
[2], first compound 0.125 µg/mL, partner 1.25 µg/mL	0.0414
[2], first compound 0.125 µg/mL, partner 2.5 µg/mL	0.0387
[2], first compound 0.125 µg/mL, partner 5 µg/mL	0.0705
[3], first compound 0.0312 µg/mL, partner 1.25 µg/mL	0.602
[3], first compound 0.0312 µg/mL, partner 2.5 µg/mL	0.424
[3], first compound 0.0312 µg/mL, partner 5 µg/mL	0.155
[3], first compound 0.0625 µg/mL, partner 2.5 µg/mL	0.179
[3], first compound 0.0625 µg/mL, partner 5 µg/mL	0.0835
[3], first compound 0.125 µg/mL, partner 1.25 µg/mL	0.0658
[3], first compound 0.125 µg/mL, partner 2.5 µg/mL	0.0591
[3], first compound 0.125 µg/mL, partner 5 µg/mL	0.0732
[4], first compound 0.0125 µg/mL, partner 0.325 µg/mL	0.775
[4], first compound 0.0125 µg/mL, partner 0.65 µg/mL	0.742
[4], first compound 0.0125 µg/mL, partner 1.3 µg/mL	0.564
[4], first compound 0.025 µg/mL, partner 0.325 µg/mL	0.49
[4], first compound 0.025 µg/mL, partner 0.65 µg/mL	0.458
[4], first compound 0.025 µg/mL, partner 1.3 µg/mL	0.333
[4], first compound 0.05 µg/mL, partner 0.325 µg/mL	0.192
[4], first compound 0.05 µg/mL, partner 0.65 µg/mL	0.147
[4], first compound 0.05 µg/mL, partner 1.3 µg/mL	0.0814

Conditions	Bliss interaction score
[5]	0.0629
[6]	0.025
[7]	-0.141
[8]	-0.0665

CCC[C@@H]1C[C@@H](C(=O)N[C@@H]([C@H]2O[C@H](SC)[C@H](O)[C@@H](O)[C@H]2O)[C@H](C)Cl)N(C)C1 [Clindamycin] + CN(N=O)C(=O)N[C@@H](C=O)[C@@H](O)[C@H](O)[C@H](O)CO [Streptozotocin]
fitness, one replicate
Conditions	first compound 0.0039 µg/mL	first compound 0.0078 µg/mL	first compound 0.015 µg/mL	first compound 0.0156 µg/mL	first compound 0.03 µg/mL	first compound 0.06 µg/mL	first compound 0.0625 µg/mL	first compound 0.125 µg/mL	first compound 0.25 µg/mL
[1], partner 0.15 µg/mL	1	0.954	–	0.951	–	–	0.545	0.41	0.378
[1], partner 0.3 µg/mL	≥ 1	0.857	–	0.894	–	–	0.504	0.383	0.366
[1], partner 0.6 µg/mL	≥ 1	0.915	–	0.89	–	–	0.521	0.374	0.365
[4], partner 1.2 µg/mL	–	–	0.817	–	0.702	0.595	–	–	–
[4], partner 2.4 µg/mL	–	–	0.908	–	0.79	0.666	–	–	–
[4], partner 4.8 µg/mL	–	–	0.909	–	0.71	0.554	–	–	–

fitness
Conditions	partner 0.15 µg/mL	partner 0.3 µg/mL	partner 0.6 µg/mL	partner 1.2 µg/mL	partner 2.4 µg/mL	partner 4.8 µg/mL
[2], first compound 0.0625 µg/mL	0.0812	0.0698	0.0805	–	–	–
[2], first compound 0.125 µg/mL	0.0369	0.0299	0.0239	–	–	–
[3], first compound 0.0312 µg/mL	0.608	0.612	0.475	–	–	–
[3], first compound 0.0625 µg/mL	0.329	0.336	0.243	–	–	–
[3], first compound 0.125 µg/mL	0.0373	0.0413	0.0299	–	–	–
[4], first compound 0.0125 µg/mL	–	–	–	0.661	0.682	0.688
[4], first compound 0.025 µg/mL	–	–	–	0.413	0.439	0.445
[4], first compound 0.05 µg/mL	–	–	–	0.175	0.207	0.196

Conditions	Bliss interaction score
[5]	0.0373
[6]	-0.0342
[7]	0.0448
[8]	-0.0563

CCC[C@@H]1C[C@@H](C(=O)N[C@@H]([C@H]2O[C@H](SC)[C@H](O)[C@@H](O)[C@H]2O)[C@H](C)Cl)N(C)C1 [Clindamycin] + CN[C@@H]1[C@H](O)[C@H](NC)[C@H]2O[C@@]3(O)C(=O)C[C@@H](C)O[C@H]3O[C@@H]2[C@H]1O [Spectinomycin]
one replicate
Conditions	fitness
[1], first compound 0.0039 µg/mL, partner 2 µg/mL	0.988
[1], first compound 0.0039 µg/mL, partner 4 µg/mL	0.98
[1], first compound 0.0039 µg/mL, partner 8 µg/mL	≥ 1
[1], first compound 0.0078 µg/mL, partner 2 µg/mL	0.897
[1], first compound 0.0078 µg/mL, partner 4 µg/mL	0.898
[1], first compound 0.0078 µg/mL, partner 8 µg/mL	0.904
[1], first compound 0.0156 µg/mL, partner 2 µg/mL	0.904
[1], first compound 0.0156 µg/mL, partner 4 µg/mL	0.903
[1], first compound 0.0156 µg/mL, partner 8 µg/mL	0.851
[2], first compound 0.0312 µg/mL, partner 32 µg/mL	0.105
[2], first compound 0.0312 µg/mL, partner 64 µg/mL	0.0235
[2], first compound 0.0625 µg/mL, partner 32 µg/mL	0.0623
[2], first compound 0.0625 µg/mL, partner 64 µg/mL	0.0291
[2], first compound 0.125 µg/mL, partner 32 µg/mL	0.0592
[2], first compound 0.125 µg/mL, partner 64 µg/mL	0.0326
[3], first compound 0.0312 µg/mL, partner 32 µg/mL	0.0927
[3], first compound 0.0312 µg/mL, partner 64 µg/mL	0.0581
[3], first compound 0.0625 µg/mL, partner 32 µg/mL	0.0269
[3], first compound 0.0625 µg/mL, partner 64 µg/mL	0.0621
[3], first compound 0.125 µg/mL, partner 32 µg/mL	0.0191
[3], first compound 0.125 µg/mL, partner 64 µg/mL	0.0457
[4], first compound 0.015 µg/mL, partner 4 µg/mL	0.935
[4], first compound 0.015 µg/mL, partner 8 µg/mL	0.899
[4], first compound 0.03 µg/mL, partner 4 µg/mL	0.765
[4], first compound 0.03 µg/mL, partner 8 µg/mL	0.754
[4], first compound 0.06 µg/mL, partner 4 µg/mL	0.657
[4], first compound 0.06 µg/mL, partner 8 µg/mL	0.671

fitness
Conditions	partner 2 µg/mL	partner 4 µg/mL	partner 8 µg/mL	partner 16 µg/mL
[1], first compound 0.0625 µg/mL	0.508	0.46	0.383	–
[1], first compound 0.125 µg/mL	0.37	0.365	0.251	–
[1], first compound 0.25 µg/mL	0.363	0.327	0.155	–
[2], first compound 0.125 µg/mL	–	0.0615	0.0809	0.0399
[3], first compound 0.0312 µg/mL	–	0.564	0.579	0.466
[3], first compound 0.125 µg/mL	–	0.0748	0.109	0.0841
[4], first compound 0.0125 µg/mL	–	0.672	0.656	0.601
[4], first compound 0.025 µg/mL	–	0.457	0.409	0.396
[4], first compound 0.05 µg/mL	–	0.248	0.231	0.19

Conditions	Bliss interaction score
[5]	-0.0853
[6]	-0.0511
[7]	-0.147
[8]	0.0544
